Measurements as given in patent publication US20120264825A1, “Amino Acid Perhydrates, Process for Their Preparation and Uses thereof” (priority 2009, published 2012).

Tests used:
[1] = Description: The compounds may be kept, for example, in closed vessels in a 4° C. refrigerator.
[2] = peak appears above the melting temperature; 2 degree/min under nitrogen flow
Description: TG and DSC studies were performed on Thermobalance, TG50 and differential scanning calorimeter, DSC 822 (Mettler, Toledo) in the range 25-200° C. under nitrogen flow at a heating rate of 2 degree/min.

In the case of `N[C@@H](CO)C(=O)O.OO` [Example 1, L-Serine Mono Hydrogen Peroxide Solvate C3H7NO3.H2O2], the “hydrogen peroxide concentration on storage” value ([1]; room temperature, several months) is reported as “maintained constant hydrogen peroxide concentration for several months”, the “loss of active oxygen on storage” value ([1]; stored at room temperature for at least three weeks) is reported as “no loss of active oxygen” and the “exothermic decomposition peak (DSC)” value [2] is reported as “about 85 °C”.
